Measured values published in patent publication US11160793B2, “Solid dosage forms of bendamustine” (Astellas Deutschland GmbH, priority 2008, dated 2021).
Counter-ions that a name gives are not always drawn.

What was measured:
[1] = Stability of aqueous solution of bendamustine as a function of pH (hydrolysis); assay type: physicochemical
[2] = 4.2-5.5 mg/kg, 7 patients, cited from earlier work
[3] = B6D2F1-mice, absorption from the gastro-intestinal tract; cited from earlier work

| SMILES | pH above which significant hydrolytic decomposition is observed [1] | mean oral bioavailability ([2]; 25 mg capsules vs intravenous) [%] | time to maximal plasma levels after oral administration ([2]; 25 mg capsules) [h] | bio-availability [3] |
| --- | --- | --- | --- | --- |
| Cn1c(CCCC(=O)O)nc2cc(N(CCCl)CCCl)ccc21 [bendamustine, 4-[5-[bis(2-chloroethyl)amino]-1-methylbenzimidazo-2-yl]butanoic acid] | higher than 5 | – | – | – |
| Cn1c(CCCC(=O)O)nc2cc(N(CCCl)CCCl)ccc21 [bendamustine hydrochloride] | – | 57 | ≤ 1 | about 40% |
